Counter-ions that a name gives are not always drawn.
System: foot edema reversed passive Arthus reaction
Test: Foot edema reversed passive Arthus reaction
Type: in vivo, Male Crj:SD rats
Protocol: The effect of the keratan sulfate oligosaccharide was examined on the foot edema reversed passive Arthus reaction of rats, which is a type III allergic inflammation model. That is, the rabbit antiovalbumin serum was subcutaneously administered to the planta of the rats which were previously subjected to the administration of the test substances, furthermore ovalbumin was administered by injection into the caudal vein thereof to induce inflammation (edema), and the inhibitory effect on edema of the test substances was examined.
Male Crj:SD rats of five weeks old were subjected to a fast of about 17 hours after a week period of quarantine, and, before inducing inflammation, subjected to the administration of the purified keratan sulfate tetrasaccharide (I) which was prepared in Example 1, indomethacin (Sigma; Lot No. 19F0018), or dexamethasone (Banyu Pharmaceutical); Decadron injection; Lot No. 8D307P) as the test substances, or saline (Otsuka Pharmaceutical; Lot No. K3H72) as the negative control. The keratan sulfate tetrasaccharide (I) and dexamethasone were dissolved in saline, respectively, and the indomethacin was dissolved in 0.5% sodium carboxymethylcellulose (CMC-Na; Wako Pure Chemical Industries; Lot No. PTN1418) in use. The volume of dose was 0.5 ml per 100 g weight in each test. Concerning the route of administration, the keratan sulfate tetrasaccharide (I), saline, and dexamethasone were administered from the caudal vein, and the indomethacin was orally administered. And the substances except for indomethacin were administered by the blind method.
The dose and administration schedule of each test substance were as follows. Each group consisted of five animals.
The rabbit antiovalbumin serum was subcutaneously administered to each of the rats described above on the planta thereof, and ovalbumin was further administered by injection into the caudal vein to induce inflammation foot edema. The antiserum used was prepared as follows. That is, to the regions of back of rabbits, 1 ml of the equivalently mixed solution (emulsion) of the saline containing 2% ovalbumin (10 mg per one animal, Egg Albumin 5×Cryst, Lot No. P93601; Seikagaku Corporation) and the Freund's complete adjuvant (FCA) was intradermally injected once a week three times totally to subject themselves to sensitization. About 34 days after the last sensitization, the blood was drawn to obtain the antiserum. The antibody titer of the antiserum obtained was determined by the double layer method. Namely, the determination was performed using the white precipitation reaction of the antiserum diluted with saline and the saline containing 0.1% ovalbumin (1 mg/ml) as the indicator. As a result, the antibody titer of the antiserum obtained was x2^7.
After the period which is designed for each group, each 0.1 ml of the sixfold diluted antiserum was subcutaneously administered to the planta of left rear foot of the rats which were subjected to the administration of each test substance. Then, the saline containing 0.5% ovalbumin (25 mg/5 ml/kg) was administered into the caudal vein to induce inflammation. The volume of the treated feet in each group was determined before inducing inflammation, and one, two, three and four hours after inducing inflammation by a foot volume determining device (TK-101, Unicom) to yield the foot edematization rate from the difference from the value before the induction, and the edematization inhibitory rate of the test substance administered group to the control group was calculated. In each edematization rate obtained, the difference between the averages was tested by the minimum significant difference test. The foot edematization rate and the edematization inhibitory rate of each administered group are shown in Table 9, and the foot edematization rate of the administered groups which was subjected to the administration of the agent at five minutes and at three hours before inducing inflammation are shown in FIG. 6 and FIG. 7, respectively. […]

## CC(=O)N[C@H]1[C@H](O[C@H]2[C@@H](O)[C@@H](COS(=O)(=O)O)O[C@@H](O[C@H]3[C@H](O)[C@@H](NC(C)=O)C(O)O[C@@H]3COS(=O)(=O)O)[C@@H]2O)O[C@H](COS(=O)(=O)O)[C@@H](O[C@@H]2O[C@H](COS(=O)(=O)O)[C@H](O)[C@H](O)[C@H]2O)[C@@H]1O (stereo partly drawn) [keratan sulfate tetrasaccharide (I), Gal(6S)β1-4GlcNAc(6S)β1-3Gal(6S)β1-4GlcNAc(6S)]
1 Hour Later, 1 mg/kg i.v. at 5 minutes before inducing edema
  Inhibitory Rate: 28.7%
1 Hour Later, 1 mg/kg i.v. at 5 minutes before inducing edema, P < 0.01, control 40.9
  Edematization Rate: 29.2 ± 1.3%
1 Hour Later, 1 mg/kg i.v. at 3 hours before inducing edema
  Inhibitory Rate: 13.4%
1 Hour Later, 1 mg/kg i.v. at 3 hours before inducing edema, control 40.9
  Edematization Rate: 35.4 ± 1.6%
1 Hour Later, 3 mg/kg i.v. at 5 minutes before inducing edema
  Inhibitory Rate: 15.8%
1 Hour Later, 3 mg/kg i.v. at 5 minutes before inducing edema, control 40.9
  Edematization Rate: 34.4 ± 5.2%
1 Hour Later, 3 mg/kg i.v. at 3 hours before inducing edema
  Inhibitory Rate: 10.6%
1 Hour Later, 3 mg/kg i.v. at 3 hours before inducing edema, control 40.9
  Edematization Rate: 36.5 ± 3.5%
1 Hour Later, 10 mg/kg i.v. at 5 minutes before inducing edema
  Inhibitory Rate: 28.9%
1 Hour Later, 10 mg/kg i.v. at 5 minutes before inducing edema, P < 0.01, control 40.9
  Edematization Rate: 29.1 ± 3.7%
1 Hour Later, 10 mg/kg i.v. at 3 hours before inducing edema
  Inhibitory Rate: -8.1%
1 Hour Later, 10 mg/kg i.v. at 3 hours before inducing edema, control 40.9
  Edematization Rate: 44.2 ± 3.4%
2 Hours Later, 1 mg/kg i.v. at 5 minutes before inducing edema
  Inhibitory Rate: 36.5%
2 Hours Later, 1 mg/kg i.v. at 5 minutes before inducing edema, P < 0.01, control 46.3
  Edematization Rate: 29.4 ± 2.9%
2 Hours Later, 1 mg/kg i.v. at 3 hours before inducing edema
  Inhibitory Rate: 8.4%
2 Hours Later, 1 mg/kg i.v. at 3 hours before inducing edema, control 46.3
  Edematization Rate: 42.4 ± 3.6%
2 Hours Later, 3 mg/kg i.v. at 5 minutes before inducing edema
  Inhibitory Rate: 8.6%
2 Hours Later, 3 mg/kg i.v. at 5 minutes before inducing edema, control 46.3
  Edematization Rate: 42.3 ± 4.2%
2 Hours Later, 3 mg/kg i.v. at 3 hours before inducing edema
  Inhibitory Rate: 23.9%
2 Hours Later, 3 mg/kg i.v. at 3 hours before inducing edema, P < 0.01, control 46.3, 3 mg/kg
  Edematization Rate: 35.3%
2 Hours Later, 3 mg/kg i.v. at 3 hours before inducing edema, P < 0.01, control 46.3, listed as Keratan Sulfate Tetrasaccharide (I), 3 mg/kg
  Edematization Rate: 35.3 ± 2.3%
2 Hours Later, 10 mg/kg i.v. at 5 minutes before inducing edema
  Inhibitory Rate: 9.1%
2 Hours Later, 10 mg/kg i.v. at 5 minutes before inducing edema, control 46.3
  Edematization Rate: 42.1 ± 2.9%
2 Hours Later, 10 mg/kg i.v. at 3 hours before inducing edema
  Inhibitory Rate: 0.4%
2 Hours Later, 10 mg/kg i.v. at 3 hours before inducing edema, control 46.3
  Edematization Rate: 46.1 ± 2.6%
3 Hours Later, 1 mg/kg i.v. at 5 minutes before inducing edema
  Inhibitory Rate: 17.0%
3 Hours Later, 1 mg/kg i.v. at 5 minutes before inducing edema, P < 0.01, control 51.2
  Edematization Rate: 42.3 ± 3.6%
3 Hours Later, 1 mg/kg i.v. at 3 hours before inducing edema
  Inhibitory Rate: 8.4%
3 Hours Later, 1 mg/kg i.v. at 3 hours before inducing edema, control 51.2
  Edematization Rate: 46.7 ± 2.6%
3 Hours Later, 3 mg/kg i.v. at 5 minutes before inducing edema
  Inhibitory Rate: 9.5%
3 Hours Later, 3 mg/kg i.v. at 5 minutes before inducing edema, control 51.2
  Edematization Rate: 46.1 ± 2.2%
3 Hours Later, 3 mg/kg i.v. at 3 hours before inducing edema
  Inhibitory Rate: 21.5%
3 Hours Later, 3 mg/kg i.v. at 3 hours before inducing edema, P < 0.01, control 51.2
  Edematization Rate: 40.1 ± 2.8%
3 Hours Later, 10 mg/kg i.v. at 5 minutes before inducing edema
  Inhibitory Rate: 12.3%
3 Hours Later, 10 mg/kg i.v. at 5 minutes before inducing edema, control 51.2
  Edematization Rate: 44.8 ± 5.1%
3 Hours Later, 10 mg/kg i.v. at 3 hours before inducing edema
  Inhibitory Rate: 18.7%
3 Hours Later, 10 mg/kg i.v. at 3 hours before inducing edema, P < 0.01, control 51.2, 10 mg/kg
  Edematization Rate: 41.5%
3 Hours Later, 10 mg/kg i.v. at 3 hours before inducing edema, P < 0.01, control 51.2, listed as Keratan Sulfate Tetrasaccharide (I), 10 mg/kg
  Edematization Rate: 41.5 ± 1.8%
4 Hours Later, 1 mg/kg i.v. at 5 minutes before inducing edema
  Inhibitory Rate: 11.3%
4 Hours Later, 1 mg/kg i.v. at 5 minutes before inducing edema, control 44.9
  Edematization Rate: 39.8 ± 3.0%
4 Hours Later, 1 mg/kg i.v. at 3 hours before inducing edema
  Inhibitory Rate: 15.5%
4 Hours Later, 1 mg/kg i.v. at 3 hours before inducing edema, P < 0.05, control 44.9, 1 mg/kg
  Edematization Rate: 38%
4 Hours Later, 1 mg/kg i.v. at 3 hours before inducing edema, P < 0.05, control 44.9, listed as Keratan Sulfate Tetrasaccharide (I), 1 mg/kg
  Edematization Rate: 38.0 ± 3.5%
4 Hours Later, 3 mg/kg i.v. at 5 minutes before inducing edema
  Inhibitory Rate: 17.1%
4 Hours Later, 3 mg/kg i.v. at 5 minutes before inducing edema, P < 0.05, control 44.9, 3 mg/kg
  Edematization Rate: 37.2%
4 Hours Later, 3 mg/kg i.v. at 5 minutes before inducing edema, P < 0.05, control 44.9, listed as Keratan Sulfate Tetrasaccharide (I), 3 mg/kg
  Edematization Rate: 37.2 ± 3.1%
4 Hours Later, 3 mg/kg i.v. at 3 hours before inducing edema
  Inhibitory Rate: 24.4%
4 Hours Later, 3 mg/kg i.v. at 3 hours before inducing edema, P < 0.01, control 44.9
  Edematization Rate: 33.9%
4 Hours Later, 10 mg/kg i.v. at 5 minutes before inducing edema
  Inhibitory Rate: 21.2%
4 Hours Later, 10 mg/kg i.v. at 5 minutes before inducing edema, P < 0.01, control 44.9
  Edematization Rate: 35.4%
4 Hours Later, 10 mg/kg i.v. at 3 hours before inducing edema
  Inhibitory Rate: 23.2%
4 Hours Later, 10 mg/kg i.v. at 3 hours before inducing edema, P < 0.01, control 44.9
  Edematization Rate: 34.5%
After an hour, administration at five minutes before inducing inflammation
  foot edematization rate, significance (result in words): the significant difference was observed in the 1 mg/kg administered group and the 10 mg/kg administered group
An hour after inducing inflammation, administration at three hours before
  foot edematization rate, significance (result in words): significant difference was not observed an hour after inducing inflammation
